The supplement of paper PMC11061612

Columns and labels:
Assay in all cases: combination Emax (second highest fraction inhibited in the dose matrix, 72 h); higher = more inhibition; extreme values may be limits of the assay
[1] = test system: BHT-101 (Thyroid Gland Carcinoma)
Procedure, shortened: (§1)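 After 24 hours at 37°C and 5% CO2 in 1536-well plates, cells in DMEM/F12 or RPMI plus 10% FBS received two-drug dose matrices for 72 hours. Viability came from CellTiter-Glo 2.0 luminescence and was scaled as inhibition, anchored at 0 by vehicle wells and at 1 by blank wells. Combination Emax is taken as the second-highest inhibition in the matrix, and Bliss excess as the observed combination effect less EA + EB − EA·EB, with EA and EB the single-agent effects.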

[2] = test system: BxPC-3 (Pancreatic Carcinoma)
Procedure, shortened: as §1

[3] = test system: COR-L88 (Small Cell Lung Carcinoma)
Procedure, shortened: as §1

[4] = test system: ES6 (Ewing's Sarcoma)
Procedure, shortened: as §1

[5] = test system: GAK (Melanoma)
Procedure, shortened: as §1

[6] = test system: IA-LM (Non-Small Cell Lung Carcinoma)
Procedure, shortened: as §1

[7] = test system: NCI-H2373 (Mesothelioma)
Procedure, shortened: as §1

[8] = test system: OVCAR-3 (Ovarian Carcinoma)
Procedure, shortened: as §1

[9] = test system: P32-ISH (Burkitt's Lymphoma)
Procedure, shortened: as §1

[10] = test system: PL4 (Pancreatic Carcinoma)
Procedure, shortened: as §1

[11] = test system: SK-CO-1 (Colorectal Carcinoma)
Procedure, shortened: as §1

[12] = test system: SNU-423 (Hepatocellular Carcinoma)
Procedure, shortened: as §1

[13] = test system: SUP-M2 (T-Cell Non-Hodgkin's Lymphoma)
Procedure, shortened: as §1

[14] = test system: SiHa (Cervical Carcinoma)
Procedure, shortened: as §1

Structure (SMILES) | combination Emax [1] | combination Emax [2] | combination Emax [3] | combination Emax [4] | combination Emax [5] | combination Emax [6] | combination Emax [7] | combination Emax [8] | combination Emax [9] | combination Emax [10] | combination Emax [11] | combination Emax [12] | combination Emax [13] | combination Emax [14]
Cc1cc2ncnn2cc1Nc1ncc2c(n1)n(C1CCOCC1)c(=O)n2C [AZD7648] + CN(C)CCCOc1ccc(-c2ccc3ncc4c(c3c2)n(C2CCOCC2)c(=O)n4C)cn1 [AZD0156] (first compound max 10 µM, 7x7, partner max 1 µM) | 0.366 | 0.176 | 0.237 | 0.37 | 0.303 | 0.35 | 0.566 | 0.116 | 0.214 | 0.0509 | 0.309 | 0.341 | 0.183 | 0.305
Cc1cc2ncnn2cc1Nc1ncc2c(n1)n(C1CCOCC1)c(=O)n2C [AZD7648] + C[C@@H]1COCCN1C2=NC(=NC(=C2)C3(CC3)[S@](=N)(=O)C)C4=C5C=CNC5=NC=C4 [AZD6738] (first compound max 10 µM, 7x7, partner max 10 µM) | 0.626 | 0.36 | 0.713 | 0.601 | 0.578 | 0.402 | 0.674 | 0.233 | 0.938 | 0.631 | 0.563 | 0.524 | 0.992 | 0.32
Cc1cc2ncnn2cc1Nc1ncc2c(n1)n(C1CCOCC1)c(=O)n2C [AZD7648] + O=C(c1cc(Cc2n[nH]c(=O)c3ccccc23)ccc1F)N1CCN(C(=O)C2CC2)CC1 [Olaparib] (first compound max 10 µM, 7x7, partner max 10 µM) | 0.383 | 0.0851 | 0.231 | 0.222 | 0.0973 | 0.158 | 0.572 | 0.145 | 0.207 | 0.28 | 0.488 | 0.275 | 0.831 | 0.143
COc1cccc2c1C(=O)c1c(O)c3c(c(O)c1C2=O)C[C@@](O)(C(=O)CO)C[C@@H]3O[C@H]1C[C@H](N)[C@H](O)[C@H](C)O1 [Doxorubicin] + Cc1cc2ncnn2cc1Nc1ncc2c(n1)n(C1CCOCC1)c(=O)n2C [AZD7648] (first compound max 1 µM, 7x7, partner max 10 µM) | 0.563 | 0.455 | 0.455 | 0.573 | 0.803 | 0.463 | 0.95 | 0.426 | 0.992 | 0.535 | 0.77 | 0.713 | 1 | 0.571
COc1cccc(OCCCN)c1-c1cc(Nc2cnc(C#N)cn2)n[nH]1 [Prexasertib] + C=CCn1c(=O)c2cnc(Nc3ccc(N4CCN(C)CC4)cc3)nc2n1-c1cccc(C(C)(C)O)n1 [AZD1775] (first compound max 1 µM, partner max 1 µM) | 0.881 | 0.76 | 0.853 | 0.603 | 0.783 | 0.64 | 0.497 | 0.885 | 1 | 0.852 | 0.775 | 0.878 | 1 | 0.487
COc1cccc(OCCCN)c1-c1cc(Nc2cnc(C#N)cn2)n[nH]1 [Prexasertib] + CCc1c2c(nc3ccc(O)cc13)-c1cc3c(c(=O)n1C2)COC(=O)[C@]3(O)CC [SN-38] (first compound max 1 µM, 7x7, partner max 0.3 µM) | 0.91 | 0.796 | 0.866 | 0.837 | 0.641 | 0.867 | 0.642 | 0.963 | 1 | 0.877 | 0.826 | 0.779 | 1 | 0.578
COc1cccc(OCCCN)c1-c1cc(Nc2cnc(C#N)cn2)n[nH]1 [Prexasertib] + CN(C)CCCOc1ccc(-c2ccc3ncc4c(c3c2)n(C2CCOCC2)c(=O)n4C)cn1 [AZD0156] (first compound max 1 µM, 7x7, partner max 1 µM) | 0.799 | 0.66 | 0.843 | 0.573 | 0.718 | 0.42 | 0.423 | 0.758 | 1 | 0.806 | 0.695 | 0.713 | 1 | 0.293
COc1cccc(OCCCN)c1-c1cc(Nc2cnc(C#N)cn2)n[nH]1 [Prexasertib] + C[C@@H]1COCCN1C2=NC(=NC(=C2)C3(CC3)[S@](=N)(=O)C)C4=C5C=CNC5=NC=C4 [AZD6738] (first compound max 1 µM, 7x7, partner max 10 µM) | 0.78 | 0.633 | 0.833 | 0.61 | 0.753 | 0.459 | 0.644 | 0.773 | 1 | 0.809 | 0.656 | 0.695 | 1 | 0.445
COc1cccc(OCCCN)c1-c1cc(Nc2cnc(C#N)cn2)n[nH]1 [Prexasertib] + Cc1cc2ncnn2cc1Nc1ncc2c(n1)n(C1CCOCC1)c(=O)n2C [AZD7648] (first compound max 1 µM, 7x7, partner max 10 µM) | 0.748 | 0.68 | 0.823 | 0.625 | 0.708 | 0.489 | 0.531 | 0.784 | 1 | 0.836 | 0.593 | 0.735 | 1 | 0.386
COc1cccc(OCCCN)c1-c1cc(Nc2cnc(C#N)cn2)n[nH]1 [Prexasertib] + O=C(c1cc(Cc2n[nH]c(=O)c3ccccc23)ccc1F)N1CCN(C(=O)C2CC2)CC1 [Olaparib] (first compound max 1 µM, 7x7, partner max 10 µM) | 0.774 | 0.682 | 0.609 | 0.58 | 0.668 | 0.463 | 0.378 | 0.821 | 1 | 0.812 | 0.643 | 0.77 | 1 | 0.404
COc1cc2c(cc1OCCCCCOc1cc3c(cc1OC)C(=O)N1C=C(C)C[C@H]1C=N3)N=C[C@@H]1CC(C)=CN1C2=O [SG3199] + O=C(c1cc(Cc2n[nH]c(=O)c3ccccc23)ccc1F)N1CCN(C(=O)C2CC2)CC1 [Olaparib] (first compound max 0.001 µM, 7x7, partner max 10 µM) | 0.193 | 0.101 | 0.237 | 0.144 | 0.106 | 0.139 | 0.242 | 0.127 | 0.247 | 0.204 | 0.46 | 0.146 | 0.839 | 0.0997
CCc1c2c(nc3ccc(O)cc13)-c1cc3c(c(=O)n1C2)COC(=O)[C@]3(O)CC [SN-38] + CN(C)CCCOc1ccc(-c2ccc3ncc4c(c3c2)n(C2CCOCC2)c(=O)n4C)cn1 [AZD0156] (first compound max 0.3 µM, 7x7, partner max 1 µM) | 0.774 | 0.523 | 0.472 | 0.603 | 0.477 | 0.882 | 0.726 | 0.449 | 1 | 0.828 | 0.887 | 0.455 | 1 | 0.235
CC(=O)Nc1cccc(-n2c(=O)n(C3CC3)c(=O)c3c(Nc4ccc(I)cc4F)n(C)c(=O)c(C)c32)c1 [Trametinib] + Cc1nc(-c2cn3c(n2)-c2ccc(-c4cnn(C(C)(C)C(N)=O)c4)cc2OCC3)n(C(C)C)n1 [Taselisib] (first compound max 1 µM, 7x7, partner max 10 µM) | 1 | 1 | 0.154 | 0.607 | 0.985 | 0.486 | 0.766 | 0.652 | 0.508 | 0.951 | 1 | 0.827 | 0.534 | 0.302
CC1(C)CCC(CN2CCN(c3ccc(C(=O)NS(=O)(=O)c4ccc(NCC5CCOCC5)c([N+](=O)[O-])c4)c(Oc4cnc5[nH]ccc5c4)c3)CC2)=C(c2ccc(Cl)cc2)C1 [Venetoclax] + C1CN(CCC1(C(=O)N[C@@H](CCO)C2=CC=C(C=C2)Cl)N)C3=NC=NC4=C3C=CN4 [Capivasertib] (first compound max 1 µM, 7x7, partner max 3 µM) | 0.214 | 0.297 | 0.557 | 0.47 | 0.152 | 0.189 | 0.422 | 0.161 | 0.306 | 0.197 | 0.187 | 0.393 | 0.248 | 0.282
CC1(C)CCC(CN2CCN(c3ccc(C(=O)NS(=O)(=O)c4ccc(NCC5CCOCC5)c([N+](=O)[O-])c4)c(Oc4cnc5[nH]ccc5c4)c3)CC2)=C(c2ccc(Cl)cc2)C1 [Venetoclax] + C=CCn1c(=O)c2cnc(Nc3ccc(N4CCN(C)CC4)cc3)nc2n1-c1cccc(C(C)(C)O)n1 [AZD1775] (first compound max 1 µM, partner max 1 µM) | 0.489 | 0.727 | 0.939 | 0.513 | 0.792 | 0.36 | 0.364 | 0.63 | 1 | 0.551 | 0.569 | 0.732 | 0.981 | 0.223
CC1(C)CCC(CN2CCN(c3ccc(C(=O)NS(=O)(=O)c4ccc(NCC5CCOCC5)c([N+](=O)[O-])c4)c(Oc4cnc5[nH]ccc5c4)c3)CC2)=C(c2ccc(Cl)cc2)C1 [Venetoclax] + CCN(CCO)CCCOc1ccc2c(Nc3cc(CC(=O)Nc4cccc(F)c4)[nH]n3)ncnc2c1 [AZD2811] (first compound max 1 µM, 7x7, partner max 1 µM) | 0.157 | 0.365 | 0.667 | 0.32 | 0.242 | 0.249 | 0.232 | 0.194 | 0.912 | 0.248 | 0.583 | 0.229 | 0.898 | 0.172
